Values quoted from earlier work as cited in patent US7094735B2, “Herbicide microemulsion-forming-concentrates, microemulsions, and methods” (priority 2001, dated 2006).

Conditions: Table 1, exemplary pKa values of acidic herbicides

Row | Compound | pKas
1 | CCc1cnc(C2=NC(C)(C(C)C)C(=O)N2)c(C(=O)O)c1 (stereo not shown) [Imazethapyr] | 3.9
2 | CC(Oc1ccc(Cl)cc1Cl)C(=O)O (stereo not shown) [Dichlorprop] | 2.86
3 | O=C(O)c1c(Cl)ccc2cc(Cl)cnc12 [Quinclorac] | 4.34
4 | N#Cc1cc(Br)c(O)c(Br)c1 [Bromoxynil] | 4.06
5 | Imazamethbenz | 2.9
6 | N#Cc1cc(I)c(O)c(I)c1 [Ioxynil] | 3.96
7 | Nc1c(Cl)c(Cl)nc(C(=O)O)c1Cl [Picloram] | 2.3
8 | COc1c(Cl)ccc(Cl)c1C(=O)O [Dicamba, 3,6-dichloro-O-anisic acid] | 1.87
9 | C[C@@H](Oc1ccc(Oc2ccc(C(F)(F)F)cn2)cc1)C(=O)O [Fluazifop-p] | 2.98
10 | O=C(O)c1cc(Oc2ccc(C(F)(F)F)cc2Cl)ccc1[N+](=O)[O-] [Acifluorfen] | 3.86
11 | CC(Oc1ccc(Oc2ncc(C(F)(F)F)cc2Cl)cc1)C(=O)O (stereo not shown) [Haloxyfop] | 4.33
12 | CC(C)C1(C)N=C(c2nc3ccccc3cc2C(=O)O)NC1=O (stereo not shown) [Imazaquin] | 3.8
13 | CC(Oc1ccc(Oc2ccc(Cl)cc2Cl)cc1)C(=O)O (stereo not shown) [Diclofop] | 3.57
14 | CCC/C(=N\OCC)C1=C(O)CC(CC(C)SCC)CC1=O (stereo not shown) [Sethoxydim] | 4.16
15 | O=C(O)COc1nc(Cl)c(Cl)cc1Cl [Triclopyr, 3,5,6-trichloro-2-pyridyloxyacetic acid] | 2.68
16 | O=C(O)CCCOc1ccc(Cl)cc1Cl [2,4-DB] | 4.8
